Assay results reported in patent publication US20260092043A1, “NOVEL BENZOXAZOLE DERIVATIVE COMPRISING 4-AMINO-BUTANAMIDE AND USE THEREOF” (EWHA UNIVERSITY - INDUSTRY COLLABORATION FOUNDATION, priority 2022, published 2026).
Read-outs that look alike come from different tables or passages of the source.

What was measured:
TNF-α mRNA = TNF-α mRNA level in liver tissue of LPS-injected mice; format: in vivo, mice (C57BL/6J); settings: 10 mg/kg in olive oil 1 hour before LPS (1 mg/kg i.p., 6 h)
Method: (§1) 10-week-old male C57BL/6J mice (Jackson Laboratory, Bar Harbor, ME, USA) were used in the experiment. All animal experiments were performed in accordance with the protocol approved by the Institutional Animal Care and Use Committee of Ewha Womans University (EWHA IACUC 19-001). The mice were housed in a temperature-controlled room (20 to 22° C. with a 12 h light:12 h dark cycle). The compounds prepared according to Examples 1 to 10 were diluted with olive oil (vehicle, Sigma) to a volume of 200 μL (10 mg/kg) and administered to mice (male C57BL/6J, […]) 1 hour before LPS administration. LPS (1 mg/kg, 6 h) was resuspended in saline and injected intraperitoneally at a dose of 1 mg/kg of body weight. At the end of the experiment, the mice were sacrificed (tribromoethanol, 250 mg/kg, i.p.) and the liver and blood were collected for further analysis.
(§2) Total RNA was isolated from tissues using TRIzol reagent (Invitrogen), and reverse transcription (RT) and real-time PCR analysis were performed using the ABI PRISM 7700 system (PE Biosystems). Data were normalized to the amount of GAPDH mRNA.
(§3) 2 compounds (Compounds 4d and 5f) were selected for in vivo assay. […] In order to evaluate the anti-inflammatory activity in mice, the mRNA expressions of IL-1β, IL-6, and TNF-α were measured, and the results are shown in FIG. 3.

[1] = Plasma ALT and AST levels in LPS-injected mice; format: in vivo, mice (C57BL/6J); settings: for plasma alanine aminotransferase (ALT) level / plasma aspartate transaminase (AST) level: compared to LPS alone; for hepatotoxicity in vivo: judged by ALT and AST levels
Method: as §1
The concentrations of plasma alanine aminotransferase (ALT) and aspartate transaminase (AST) were determined using an EnzyChrom™ assay kit (BioAssay Systems, Hayward, CA, USA) according to the manufacturer's recommendations.
Consistent with the altered histological characteristics, plasma alanine aminotransferase (ALT) and aspartate transaminase (AST) levels increased after LPS administration (FIGS. 4c and 4d), and when Compounds 5f and 4d were administered, ALT and AST levels decreased.

IL-1β mRNA expression = test: Inhibition of IL-1β mRNA expression in LPS-treated HaCaT cells (real-time PCR); format: cell-based, Human; settings: 10 μM compound pretreatment then LPS, LPS alone set to 100%
Method: (§4) Human keratinocytes HaCaT or alpha mouse liver 12 (AML-12) cells were obtained from Cell Lines Service GmbH (Eppelheim, Germany). The cells were cultured in Dulbecco's modified Eagle's medium (DMEM, HyClone) supplemented with 10% fetal bovine serum (HyClone) (HaCaT cells) and 1% penicillin/streptomycin (HyClone) and maintained at 37° C. in a humidified atmosphere containing 5% CO2. AML-12 cells were pretreated with compounds at a concentration of 10 μM 1 hour before LPS treatment and then treated with LPS (100 ng/mL) for 24 hours.
as §2
(§5) 13 novel synthetic compounds (Compounds 5a to 5m) and 3 synthetic intermediates (Compounds 4d, 4e, and 41) were screened by measuring the mRNA expression levels of IL-6 and IL-1β. Human keratinocyte HaCaT cell lines were used to evaluate the mRNA expression inhibition effect. […] Each compound was administered at a concentration of 10 μM.

IL-6 mRNA expression = test: Inhibition of IL-6 mRNA expression in LPS-treated HaCaT cells (real-time PCR); format: cell-based, Human; settings: for mRNA Expression (%) (10 μM) IL-6: HaCaT cells, 10 μM compound pretreatment then LPS, LPS alone set to 100%; for IC50: Homo sapiens, HaCaT
Method: as §4, §2, §5
Dose-response studies were performed for the above five compounds at different concentrations to obtain IC50 values (μM) (FIG. 1 and Table 3).

IL-1β mRNA = IL-1β mRNA level in liver tissue of LPS-injected mice; format: in vivo, mice (C57BL/6J); settings: 10 mg/kg in olive oil 1 hour before LPS (1 mg/kg i.p., 6 h)
Method: as §1, §2, §3

[2] = system: LPS-induced liver inflammatory disease model; test: Liver histology (H&E) and F4/80 immunohistochemistry in LPS-induced liver inflammatory disease model; format: in vivo, mice (C57BL/6J); settings: mice, compared to LPS alone; for F4/80-positive cells in liver: immunohistochemistry
Method: as §1
First, 4% paraformaldehyde-fixed liver tissues were embedded in paraffin according to standard procedures. 4-micron-thick liver tissue sections were prepared, and immunohistochemical staining was performed according to the manufacturer's instructions. 4-micron-thick liver tissue sections were stained with hematoxylin and eosin (H&E) or subjected to immunohistochemical characterization using an antibody specific for F4/80 (Abcam, Cambridge, MA, UK). All steps were performed at room temperature, and the tissues were washed with tap water after each step. The sections were photographed using a Zeiss microscope (Carl Ziess, Thronwood, NY, USA) equipped with AxioCam software.
As a result of LPS administration, macrophage infiltration into the liver tissue was observed. When Compounds 5f and 4d were administered, the inflammatory response was improved compared to when LPS was administered alone.
In order to characterize the phenotype of macrophages accumulated in LPS-induced inflammation, immunohistochemical studies were performed using antibodies against F4/80 as a marker of mature macrophages (FIG. 4b). When LPS was administered alone to induce an inflammatory response, hepatic macrophage accumulation increased. As a result, there was a marked elevation of the number of F4/80-positive cells.

p-IκBα = test: Western blotting of p-IκBα in LPS-treated AML-12 cells; format: cell-based, mouse; settings: 10 μM compound, FIG. 2
Method: as §4
(§6) Protein levels in cells and mouse tissues were determined by immunoblot analysis. […] After quantifying the protein concentrations in the lysates (supernatant) using the Bradford assay (Bio-Rad, CA, USA), the lysates were mixed with a sample buffer (62.5 mM Tris-HCl pH 6.8, 10% glycerol, 2% sodium dodecyl sulfate, 0.0125% bromophenol blue, 2.5% β-mercaptoethanol) and heated at 95° C. for 5 minutes. […] Immune complexes were detected with horseradish peroxidase (HRP)-conjugated secondary antibodies (Bio-Rad, Hercules, CA, USA) and enhanced with chemiluminescence reagents (Ab Frontier, Daejeon, Korea) using IQ800 (GE Healthcare, Sweden). The abundance of the target protein was quantified by densitometric analysis of the immunoblot. […]

p-NF-κB p65 = test: Western blotting of p-NF-κB p65 in LPS-treated AML-12 cells; format: cell-based, mouse; settings: 10 μM compound, FIG. 2
Method: as §4, §6

pY-STAT3 = test: Western blotting of pY-STAT3 in LPS-treated AML-12 cells; format: cell-based, mouse; settings: 10 μM compound, FIG. 2
Method: as §4, §6

IL-6 mRNA = IL-6 mRNA level in liver tissue of LPS-injected mice; format: in vivo, mice (C57BL/6J); settings: 10 mg/kg in olive oil 1 hour before LPS (1 mg/kg i.p., 6 h)
Method: as §1, §2, §3

[3] = dose-response of normalized IL-6 mRNA expression (FIG. 1), read-out: IC50
[4] = log of IC50, dose-response of normalized IL-6 mRNA expression (FIG. 1), read-out: Log (converted)

Compound	mRNA level of TNF-α in vivo (TNF-α mRNA)	plasma alanine aminotransferase (ALT) level [1]	plasma aspartate transaminase (AST) level [1]	hepatotoxicity in vivo [1]	mRNA Expression (%) (10 μM) IL-1β (IL-1β mRNA expression)	mRNA Expression (%) (10 μM) IL-6 (IL-6 mRNA expression)	IC50 (IL-6 mRNA expression; [3])	IC50 (IL-6 mRNA expression; [4])	mRNA level of IL-1β in vivo (IL-1β mRNA)	inflammatory response in liver histology (H&E) [2]	F4/80-positive cells in liver [2]	expression level of p-IκBα (p-IκBα)	expression level of p-NF-κB p65 (p-NF-κB p65)	expression level of pY-STAT3 (pY-STAT3)	mRNA level of IL-6 in vivo (IL-6 mRNA)
Cc1ccc2oc(Nc3ccc(NC(=O)CCCNC(=O)OC(C)(C)C)cc3)nc2c1 [Compound 4d, tert-butyl 4-(4-(5-methylbenzo[d]oxazol-2-ylamino)phenylamino)-4-oxobutylcarbamate]	significantly reduced	decreased	decreased	without hepatotoxicity	0.03%	2.4%	0.0604 nM	0.0603 nM	significantly reduced	improved	significant decrease	significantly down-regulated	significantly down-regulated	significantly down-regulated	significantly reduced
Cc1cccc2oc(Nc3ccc(NC(=O)CCCN)cc3)nc12 [Compound 5c, 4-amino-N-(4-(4-methylbenzo[d]oxazol-2-ylamino)phenyl)butanamide]	–	–	–	–	0.79%	2.08%	1640 nM	1660 nM	–	–	–	–	–	–	–
COc1cc(NC(=O)CCCN)ccc1Nc1nc2cc(C(C)(C)C)ccc2o1 [Compound 5m, 4-amino-N-(4-(5-tert-butylbenzo[d]oxazol-2-ylamino)-3-methoxyphenyl)butanamide]	–	–	–	–	0.49%	4.07%	0.199 nM	0.2 nM	–	–	–	–	–	–	–
CC(C)(C)c1ccc2oc(Nc3ccc(NC(=O)CCCN)cc3)nc2c1 [Compound 5f, 4-amino-N-(4-(5-tert-butylbenzo[d]oxazol-2-ylamino)phenyl)butanamide]	significantly reduced	decreased	decreased	without hepatotoxicity	2.83%	3.26%	0.444 nM	0.447 nM	significantly reduced	improved	significant decrease	significantly down-regulated	significantly down-regulated	significantly down-regulated	significantly reduced
Cc1ccc2oc(Nc3ccc(NC(=O)CCCN)cc3)nc2c1 [Compound 5d, 4-amino-N-(4-(5-methylbenzo[d]oxazol-2-ylamino)phenyl)butanamide]	–	–	–	–	0.03%	3.39%	32.7 nM	33.1 nM	–	–	–	–	–	–	–
